Test results from PubChem BioAssay AID1963973 (Molecular Pharmacology Branch, DTP, NCI, 2024).

Test system: 883617-216-R-J1-PDC tumor spheroids, viability
Assay: Anticancer human tumor 883617-216-R-J1-PDC patient-derived bladder carcinoma cell line growth inhibition [PI3K]
Conditions: spheroids with HUVEC and MSC; for viability, T/C: stronger effect = lower value
Method in brief: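 Viability of mixed-cell spheroids was determined after exposure to pairwise combinations, one partner being inavolisib, alpelisib, duvelisib or copanlisib. Highest tested concentration matched clinical Cmax where known and 10 microM where not, descending in half-log steps.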

[1] = curve of first compound, second compound 0.0316 µM
[2] = curve of first compound, second compound 0.1 µM
[3] = curve of first compound, second compound 0.316 µM
[4] = curve of first compound, second compound 1 µM
[5] = curve of first compound, second compound 3.16 µM
[6] = curve of first compound, second compound 10 µM
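Also: spheroids exposed to agents for 7 days before the viability read.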

Q: Which viability, T/C (compound 0.00316 µM) does the source give for `COc1c(OCCCN2CCOCC2)ccc2c3n(c(=NC(=O)c4cnc(N)nc4)nc12)CCN3` here?
A: 93.8% [middle of 8 runs]

Q: And the viability, T/C (compound 0.01 µM)?
A: 70.5% [middle of 8 runs]

Q: And the viability, T/C (compound 0.0316 µM)?
A: 40% [middle of 8 runs]

Q: What about the viability, T/C (compound 0.1 µM) of the same compound?
A: 15.4% [middle of 8 runs]

Q: What about the viability, T/C (compound 0.316 µM) of the same compound?
A: 4.37% [middle of 7 runs]

Q: What about the viability, T/C (compound 1 µM) of the same compound?
A: 3.24% [middle of 8 runs]

Q: And the IC50 (compound alone, run of 04/25/2023)?
A: 20.7 nM [middle of 8 runs]

Q: Which IC50 [1] does the source give for `CC(Cn1ccc(-c2ccc(C#N)c(Cl)c2)n1)NC(=O)c1cc(C(C)O)[nH]n1` (configuration not stated) + Cc1nc(NC(=O)N2CCCC2C(N)=O)sc1-c1ccnc(C(C)(C)C(F)(F)F)c1 here?
A: > 10 µM

Q: What about the IC50 [2] of the same compound?
A: > 10 µM

Q: What about the IC50 [3] of the same compound?
A: < 0.0316 µM

Q: And the IC50 [4]?
A: < 0.0316 µM

Q: What about the IC50 [5] of the same compound?
A: < 0.0316 µM

Q: What about the IC50 [6] of the same compound?
A: < 0.0316 µM

Q: What about the viability, T/C (second compound 0.0316 µM, first compound 0.0316 µM) of the same compound?
A: 86.2%

Q: What about the viability, T/C (second compound 0.0316 µM, first compound 0.1 µM) of the same compound?
A: 77.4%

Q: What about the viability, T/C (second compound 0.0316 µM, first compound 0.316 µM) of the same compound?
A: 85.3%

Q: And the viability, T/C (second compound 0.0316 µM, first compound 1 µM)?
A: 101%

Q: What about the viability, T/C (second compound 0.0316 µM, first compound 3.16 µM) of the same compound?
A: 100%

Q: What about the viability, T/C (second compound 0.0316 µM, first compound 10 µM) of the same compound?
A: 93.8%

Q: What about the viability, T/C (second compound 0.1 µM, first compound 0.0316 µM) of the same compound?
A: 73.8%

Q: What about the viability, T/C (second compound 0.1 µM, first compound 0.1 µM) of the same compound?
A: 60.6%

Q: What about the viability, T/C (second compound 0.1 µM, first compound 0.316 µM) of the same compound?
A: 67.9%

Q: And the viability, T/C (second compound 0.1 µM, first compound 1 µM)?
A: 78.9%

Q: What about the viability, T/C (second compound 0.1 µM, first compound 3.16 µM) of the same compound?
A: 70%

Q: What about the viability, T/C (second compound 0.1 µM, first compound 10 µM) of the same compound?
A: 67.4%

Q: What about the viability, T/C (second compound 0.316 µM, first compound 0.0316 µM) of the same compound?
A: 45.4%

Q: What about the viability, T/C (second compound 0.316 µM, first compound 0.1 µM) of the same compound?
A: 40.1%

Q: What about the viability, T/C (second compound 0.316 µM, first compound 0.316 µM) of the same compound?
A: 50.6%

Q: And the viability, T/C (second compound 0.316 µM, first compound 1 µM)?
A: 42.5%

Q: What about the viability, T/C (second compound 0.316 µM, first compound 3.16 µM) of the same compound?
A: 55%

Q: And the viability, T/C (second compound 0.316 µM, first compound 10 µM)?
A: 55.9%

Q: What about the viability, T/C (second compound 1 µM, first compound 0.0316 µM) of the same compound?
A: 30.8%

Q: What about the viability, T/C (second compound 1 µM, first compound 0.1 µM) of the same compound?
A: 31%

Q: And the viability, T/C (second compound 1 µM, first compound 0.316 µM)?
A: 28.8%

Q: What about the viability, T/C (second compound 1 µM, first compound 1 µM) of the same compound?
A: 24.7%

Q: And the viability, T/C (second compound 1 µM, first compound 3.16 µM)?
A: 28.8%

Q: And the viability, T/C (second compound 1 µM, first compound 10 µM)?
A: 28%

Q: What about the viability, T/C (second compound 3.16 µM, first compound 0.0316 µM) of the same compound?
A: 13%

Q: And the viability, T/C (second compound 3.16 µM, first compound 0.1 µM)?
A: 15.4%

Q: And the viability, T/C (second compound 3.16 µM, first compound 0.316 µM)?
A: 15.5%

Q: And the viability, T/C (second compound 3.16 µM, first compound 1 µM)?
A: 15.3%

Q: And the viability, T/C (second compound 3.16 µM, first compound 3.16 µM)?
A: 16.2%

Q: And the viability, T/C (second compound 3.16 µM, first compound 10 µM)?
A: 15.3%

Q: And the viability, T/C (second compound 10 µM, first compound 0.0316 µM)?
A: 6.67%

Q: And the viability, T/C (second compound 10 µM, first compound 0.1 µM)?
A: 7.22%

Q: What about the viability, T/C (second compound 10 µM, first compound 0.316 µM) of the same compound?
A: 6.48%

Q: What about the viability, T/C (second compound 10 µM, first compound 1 µM) of the same compound?
A: 6.6%

Q: What about the viability, T/C (second compound 10 µM, first compound 3.16 µM) of the same compound?
A: 9.29%

Q: What about the viability, T/C (second compound 10 µM, first compound 10 µM) of the same compound?
A: 7.26%

Q: Which results are given for `Cn1cnc2c(F)c(Nc3ccc(Br)cc3Cl)c(C(=O)NOCCO)cc21` + CC(Nc1ncnc2nc[nH]c12)c1cc2cccc(Cl)c2c(=O)n1-c1ccccc1?
A: IC50 [1]: 0.0431 µM; IC50 [2]: 0.0393 µM; IC50 [3]: 0.0327 µM; IC50 [4]: 0.0227 µM; IC50 [5]: 0.0096 µM; IC50 [6]: < 0.00949 µM; viability, T/C (second compound 0.0316 µM, first compound 0.00949 µM): 64.3%; viability, T/C (second compound 0.0316 µM, first compound 0.03 µM): 56.1%; viability, T/C (second compound 0.0316 µM, first compound 0.0949 µM): 39.5%; viability, T/C (second compound 0.0316 µM, first compound 0.3 µM): 33.4%; viability, T/C (second compound 0.0316 µM, first compound 0.949 µM): 33.5%; viability, T/C (second compound 0.0316 µM, first compound 3 µM): 19.9%; viability, T/C (second compound 0.1 µM, first compound 0.00949 µM): 66.4%; viability, T/C (second compound 0.1 µM, first compound 0.03 µM): 55%; viability, T/C (second compound 0.1 µM, first compound 0.0949 µM): 35.6%; viability, T/C (second compound 0.1 µM, first compound 0.3 µM): 28.8%; viability, T/C (second compound 0.1 µM, first compound 0.949 µM): 30%; viability, T/C (second compound 0.1 µM, first compound 3 µM): 19.7%; viability, T/C (second compound 0.316 µM, first compound 0.00949 µM): 68.8%; viability, T/C (second compound 0.316 µM, first compound 0.03 µM): 51%; viability, T/C (second compound 0.316 µM, first compound 0.0949 µM): 37.8%; viability, T/C (second compound 0.316 µM, first compound 0.3 µM): 28.4%; viability, T/C (second compound 0.316 µM, first compound 0.949 µM): 23.9%; viability, T/C (second compound 0.316 µM, first compound 3 µM): 19.6%; viability, T/C (second compound 1 µM, first compound 0.00949 µM): 60%; viability, T/C (second compound 1 µM, first compound 0.03 µM): 44.9%; viability, T/C (second compound 1 µM, first compound 0.0949 µM): 39.4%; viability, T/C (second compound 1 µM, first compound 0.3 µM): 28%; viability, T/C (second compound 1 µM, first compound 0.949 µM): 22.4%; viability, T/C (second compound 1 µM, first compound 3 µM): 19%; viability, T/C (second compound 3.16 µM, first compound 0.00949 µM): 50.3%; viability, T/C (second compound 3.16 µM, first compound 0.03 µM): 37%; viability, T/C (second compound 3.16 µM, first compound 0.0949 µM): 23.2%; viability, T/C (second compound 3.16 µM, first compound 0.3 µM): 20.6%; viability, T/C (second compound 3.16 µM, first compound 0.949 µM): 19%; viability, T/C (second compound 3.16 µM, first compound 3 µM): 11%; viability, T/C (second compound 10 µM, first compound 0.00949 µM): 31.2%; viability, T/C (second compound 10 µM, first compound 0.03 µM): 24.7%; viability, T/C (second compound 10 µM, first compound 0.0949 µM): 17.8%; viability, T/C (second compound 10 µM, first compound 0.3 µM): 13.3%; viability, T/C (second compound 10 µM, first compound 0.949 µM): 12.4%; viability, T/C (second compound 10 µM, first compound 3 µM): 8.11%

Q: Which results are given for `CCN1CCN(Cc2ccc(Nc3ncc(F)c(-c4cc(F)c5nc(C)n(C(C)C)c5c4)n3)nc2)CC1`?
A: viability, T/C (compound 0.00316 µM): 92% [middle of 4 runs]; viability, T/C (compound 0.01 µM): 78.9% [middle of 4 runs]; viability, T/C (compound 0.0316 µM): 75.5% [middle of 4 runs]; viability, T/C (compound 0.1 µM): 59% [middle of 4 runs]; viability, T/C (compound 0.316 µM): 56.6% [middle of 4 runs]; viability, T/C (compound 1 µM): 47.2% [middle of 4 runs]
